Data taken from PMC11173897, “Computational Docking as a Tool in Guiding the Drug Design of Rutaecarpine Derivatives as Potential SARS-CoV-2 Inhibitors” (Molecules, 2024).

Legend:
[1] = tested on: omicron SARS-CoV-2 pseudovirus; experiment: microbe, parasite or virus in culture; assay type: cell-based; conditions: Severe acute respiratory syndrome-related coronavirus, HEK-293T; n = 5; read-out: IC50, entry of the omicron pseudovirus
[2] = tested on: wild-type SARS-CoV-2 pseudovirus; experiment: microbe, parasite or virus in culture; assay type: cell-based; conditions: for IC50: Severe acute respiratory syndrome-related coronavirus, HEK-293T, n = 5, read-out: IC50, blocking wild-type viral entry

| SMILES | IC50 [1] [µM] | IC50 [2] [µM] | maximal inhibition compared with RU [2] |
| --- | --- | --- | --- |
| O=c1c2ccccc2nc2n1CCc1c-2[nH]c2ccccc12 [RU, rutaecarpine] | 1.01 | 1.34 |  |
| O=c1c2ccc(Nc3ccccc3)cc2nc2n1CCc1c-2[nH]c2ccccc12 [RU-75] | 0.32 | 0.46 | almost double that of RU |
| O=C1c2ccc(Nc3ccccc3)cc2NC2=NCCc3c2n1c1ccccc31 [RU-184] | 0.26 | 0.21 | almost double that of RU |
